In patent US12589099B2 (priority 2021, dated 2026):

What was measured:
[1] = tested on: 5 microorganisms (3 bacteria and 2 fungi); test: USP 51 Preservative Challenge Test, overall assessment by USP Criteria for Category 2; format: cell-based; conditions: 14 and 28 days
Protocol: (§1) In order to assess the anti-microbial properties of ALPHA-1062, the USP (US Pharmacopeia) Chapter 51 Preservative Challenge Test (USP 51) was employed. The USP 51 is a common method used to gauge preservative effectiveness. Much like a Preservative Challenge Screen, it is used to evaluate the effect of preservatives in cosmetics, personal care products, and drug products. Preservatives are typically antimicrobial ingredients that are added to aqueous product formulations to help maintain the safety of the product by inhibiting the growth and reducing the number of microbial contaminants.
In the context of the present invention, ALPHA-1062 (in the form of the gluconate salt) was assessed in place of (as) a preservative. No additional preservative was added to the ALPHA-1062 gluconate preparation, rather an anti-microbial effect of the agent itself (ALPHA-1062) was assessed. ALPHA-1062 is therefore the anti-microbial agent in the assay and experiments described below. […]
The inoculated containers were incubated at 22.5±2.5° C. and each container was sampled at the appropriate intervals, as specified in Table 3. Any changes observed in the appearance of the culture was recorded at these intervals. By using the plate-count procedure, the number of CFU present in each test preparation was determined for the applicable intervals. […]

[2] = tested on: Staphylococcus aureus (ATCC No. 6538); test: USP 51 Preservative Challenge Test; format: cell-based; conditions: S. aureus ATCC 6538
Protocol: as §1
(§2) In the context of the present invention, ALPHA-1062 (in the form of the gluconate salt) was assessed in place of (as) a preservative. No additional preservative was added to the ALPHA-1062 gluconate preparation, rather an anti-microbial effect of the agent itself (ALPHA-1062) was assessed. ALPHA-1062 is therefore the anti-microbial agent in the assay and experiments described below.
(§3) The USP 51 challenge test utilizes 5 microorganisms (3 bacteria and 2 fungi) for challenge testing. Each of the microorganisms are known strains of pathogenic microorganisms and they represent a wide range of microbial physiologies.
(§4) Cultures of the following microorganisms were applied, as per standard guidelines for USP 51: Candida albicans (ATCC No. 10231), Aspergillus brasiliensis (ATCC No. 16404), Escherichia coli (ATCC No. 8739), Pseudomonas aeruginosa (ATCC No. 9027), and Staphylococcus aureus (ATCC No. 6538).
(§5) The test was conducted in five sterile, capped bacteriological containers of suitable size into which a sufficient volume of product has been transferred. Each container was inoculated with one of the prepared and standardized inoculums and was mixed accordingly. The volume of the suspension inoculum used was between 0.5% and 1.0% of the volume of the product. The concentration of test microorganisms that was added to the product was such that the final concentration of the test preparation after inoculation was between 1×10^5 and 1×10^6 CFU per mL of the product, according to standard guidelines for Category 2 products.
(§6) The initial concentration of viable microorganisms in each test preparation was estimated based on the concentration of microorganisms in each of the standardized inoculums, as determined by the plate-count method.
(§7) The inoculated containers were incubated at 22.5±2.5° C. and each container was sampled at the appropriate intervals, as specified in Table 3. Any changes observed in the appearance of the culture was recorded at these intervals. By using the plate-count procedure, the number of CFU present in each test preparation was determined for the applicable intervals.
(§8) An inactivator (neutralizer) of the specific antimicrobial was incorporated in the plate count or in the appropriate dilution prepared for plating. These conditions were determined in the validation study for that sample based upon the conditions of media and microbial recovery incubation times listed in Table 2. Using the calculated concentrations of CFU per mL present at the start of the test, the change in log 10 values of the concentration of CFU per mL for each microorganism was calculated at the applicable test intervals, and the changes were expressed in terms of log reductions.
(§9) The USP Criteria for Category 2 were employed in order to determine the presence of an anti-microbial effect. For bacteria, an antimicrobial effect is evident when at least a 2.0 log reduction from the initial count is evident at 14 days and no increase is evident from the 14-day count at 28 days. For yeast and molds, an antimicrobial effect is evident when no increase from the initial calculated count is determined at 14 and 28 days.

[3] = tested on: Aspergillus brasiliensis (ATCC No. 16404); test: USP 51 Preservative Challenge Test; format: cell-based; conditions: A. brasiliensis ATCC 16404; initial Log10 5.3
Protocol: as §1, §2, §3, §4, §5, §6, §7, §8, §9

[4] = tested on: Pseudomonas aeruginosa (ATCC No. 9027); test: USP 51 Preservative Challenge Test; format: cell-based; conditions: P. aeruginosa ATCC 9027
Protocol: as §1, §2, §3, §4, §5, §6, §7, §8, §9

[5] = tested on: Candida albicans (ATCC No. 10231); test: USP 51 Preservative Challenge Test; format: cell-based; conditions: C. albicans ATCC 10231
Protocol: as §1, §2, §3, §4, §5, §6, §7, §8, §9

[6] = tested on: Escherichia coli (ATCC No. 8739); test: USP 51 Preservative Challenge Test; format: cell-based; conditions: E. coli ATCC 8739
Protocol: as §1, §2, §3, §4, §5, §6, §7, §8, §9

[7] = 43% RH (RT), up to 5 days; cited from earlier work
[8] = initial 4.0 × 10^5 CFU/mL (Log10 5.6), 22.5±2.5° C., no additional preservative
[9] = initial 2.9 × 10^5 CFU/mL (Log10 5.5), 22.5±2.5° C., no additional preservative
[10] = initial 6.7 × 10^5 CFU/mL (Log10 5.8), 22.5±2.5° C., no additional preservative
[11] = initial 9.1 × 10^5 CFU/mL (Log10 6.0), 22.5±2.5° C., no additional preservative

Row | Compound | anti-microbial effect against all 5 organisms tested in the USP 51 [1] | Day 14 CFU/mL [2, 8] [CFU/mL] | Day 28 CFU/mL [2, 8] [CFU/mL] | Day 14 Log Reduction ([2]; initial Log10 5.6) | Day 28 Log Reduction ([2]; initial Log10 5.6) | Day 14 Log Reduction [3] | Day 28 Log Reduction [3] | Day 14 CFU/mL [4, 9] [CFU/mL] | Day 28 CFU/mL [4, 9] [CFU/mL] | Day 14 Log Reduction ([4]; initial Log10 5.5) | Day 28 Log Reduction ([4]; initial Log10 5.5) | Day 14 CFU/mL [5, 10] [CFU/mL] | Day 28 CFU/mL [5, 10] [CFU/mL] | Day 14 Log Reduction ([5]; initial Log10 5.8) | Day 28 Log Reduction ([5]; initial Log10 5.8) | Day 14 CFU/mL [6, 11] [CFU/mL] | Day 28 CFU/mL [6, 11] [CFU/mL] | Day 14 Log Reduction ([6]; initial Log10 6.0) | Day 28 Log Reduction ([6]; initial Log10 6.0) | solid state stability of the crystalline form [7]
1 | COc1ccc2c3c1O[C@H]1C[C@@H](OC(=O)c4ccccc4)C=C[C@@]31CCN(C)C2 [ALPHA-1062 Gluconate] | strong anti-microbial effect | <10 | <10 | 4.6 | 4.6 | 3.1 | 3.1 | <10 | <10 | 4.5 | 4.5 | <10 | <10 | 4.8 | 4.8 | <10 | <10 | 5.0 | 5.0 | 
2 | COc1ccc2c3c1O[C@H]1C[C@@H](OC(=O)c4ccccc4)C=C[C@@]31CCN(C)C2.O=C(O)C(O)C(O)C(O)C(O)CO [Form A] |  |  |  |  |  |  |  |  |  |  |  |  |  |  |  |  |  |  |  | kinetically stable
